Experimental data reported in ChEMBL document CHEMBL1153599, “Synthesis of new chiral 2,5-disubstituted 1,3,4-thiadiazoles possessing gamma-butenolide moiety and preliminary evaluation of in vitro anticancer activity” (Eur J Med Chem, 2009).

Experiments:
HeLa [1] = assay: Viability of human HeLa cells at 20 uM after 24 hrs by MTT assay
HeLa [2] = assay: Anticancer activity against human HeLa cells after 24 hrs by MTT assay; format: functional, cell-based
HeLa [3] = assay: Viability of human HeLa cells at 10 uM after 24 hrs by MTT assay
HeLa [4] = assay: Viability of human HeLa cells at 0.1 uM after 24 hrs by MTT assay
HeLa [5] = assay: Viability of human HeLa cells at 1 uM after 24 hrs by MTT assay
HeLa [6] = assay: Viability of human HeLa cells at 5 uM after 24 hrs by MTT assay

IC50 (HeLa [2]) [µM]	SMILES	viability at 20 µM (HeLa [1]) [%]	viability at 10 µM (HeLa [3]) [%]	viability at 0.1 µM (HeLa [4]) [%]	viability at 1 µM (HeLa [5]) [%]	viability at 5 µM (HeLa [6]) [%]
3	CC1(C)C2CCC1(C)C(O[C@H]1OC(=O)C(Br)=C1Sc1nnc(-c3ccncc3)s1)C2 (some centres not stated)	40.6	39.4	51.8	55.1	44.9
3	CC1CCC(C(C)C)C(O[C@H]2OC(=O)C(Br)=C2Sc2nnc(-c3ccccc3)s2)C1 (some centres not stated)	29.7	28.1	56.1	59.1	40.6
2.6	CC1CCC(C(C)C)C(O[C@H]2OC(=O)C(Br)=C2Sc2nnc(-c3ccc(O)cc3)s2)C1 (some centres not stated)	36	44.4	60.6	59.4	36
1.7	CC1CCC(C(C)C)C(O[C@H]2OC(=O)C(Br)=C2Sc2nnc(-c3ccco3)s2)C1 (some centres not stated)	27.2	36.9	55.6	54.3	29.4
1.3	CC1(C)C2CCC1(C)C(O[C@H]1OC(=O)C(Br)=C1Sc1nnc(-c3ccco3)s1)C2 (some centres not stated)	34.3	28.6	50.9	51.4	31.1
1.3	CC1CCC(C(C)C)C(O[C@H]2OC(=O)C(Br)=C2Sc2nnc(-c3ccncc3)s2)C1 (some centres not stated)	22.3	26.8	73.8	51.3	33.9
2.9	CC1CCC(C(C)C)C(O[C@H]2OC(=O)C(Br)=C2Sc2nnc(-c3ccccc3O)s2)C1 (some centres not stated)	33.4	42.3	58.9	61.2	37.5
5.6	CC1CCC(C(C)C)C(O[C@H]2OC(=O)C(Br)=C2Sc2nnc(-c3cccnc3)s2)C1 (some centres not stated)	33	32.8	56.4	59.5	52.3
3.4	CC1(C)C2CCC1(C)C(O[C@H]1OC(=O)C(Br)=C1Sc1nnc(-c3cccnc3)s1)C2 (some centres not stated)	36.3	40.5	58.9	56.3	45.4
2.2	CC1CCC(C(C)C)C(O[C@H]2OC(=O)C(Br)=C2Sc2nnc(-c3ccc(Cl)cc3)s2)C1 (some centres not stated)	26.8	35.1	51	58.2	29.3
0.9	CC1CCC(C(C)C)C(O[C@H]2OC(=O)C(Br)=C2Sc2nnc(-c3ccc([N+](=O)[O-])cc3)s2)C1 (some centres not stated)	24.5	34.5	59.2	47.6	30
3.7	COc1ccc(-c2nnc(SC3=C(Br)C(=O)O[C@@H]3OC3CC(C)CCC3C(C)C)s2)cc1 (some centres not stated)	32.9	35.6	56.4	55.6	47.1
